Source: USRE47221E1, “Tricyclic compounds” (AbbVie Inc., priority 2009, dated 2019)
Where a name gives a salt, the structure may show the parent alone.

Biological target: T1, Jak3 (Homo sapiens, UniProt P52333)
T1 construct: Jak3 enzyme (aa 811-1103); expressed in SF9 cells as a GST fusion; GST; made in house; host or cells: SF9 insect cells
Experiment: Jak3 enzyme data for selected compounds
Type: biochemical

T1 sequence (P52333 811-1103): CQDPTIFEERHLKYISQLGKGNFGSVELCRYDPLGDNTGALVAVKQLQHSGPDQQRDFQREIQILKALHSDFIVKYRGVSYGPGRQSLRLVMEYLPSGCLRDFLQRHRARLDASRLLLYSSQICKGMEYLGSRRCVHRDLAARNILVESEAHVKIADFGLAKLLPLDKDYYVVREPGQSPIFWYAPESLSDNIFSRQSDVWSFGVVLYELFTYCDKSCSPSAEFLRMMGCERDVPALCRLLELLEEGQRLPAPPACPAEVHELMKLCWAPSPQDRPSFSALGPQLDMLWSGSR

| SMILES | IC50 [nM] |
| --- | --- |
| C[C@@H]1C[C@H](OCC2CC2)C[C@@H]1c1nnc2cnc3[nH]ccc3n12 [D.1.54] | > 1000 |
| CC[C@@H]1C[C@H](NS(=O)(=O)NCCO)C[C@@H]1c1nnc2cnc3[nH]ccc3n12 [D.1.56] | 100 to 1000 |
| CC[C@@H]1C[C@H](NS(=O)(=O)CCn2ccnn2)C[C@@H]1c1nnc2cnc3[nH]ccc3n12 [D.1.58] | 100 to 1000 |
| CC[C@@H]1C[C@H](NS(=O)(=O)CCn2nccn2)C[C@@H]1c1nnc2cnc3[nH]ccc3n12 [D.1.59] | 100 to 1000 |
| CC[C@@H]1C[C@H](NS(=O)(=O)CCN2CCC(F)(F)CC2)C[C@@H]1c1nnc2cnc3[nH]ccc3n12 [D.1.60] | > 1000 |
| CC[C@@H]1C[C@H](NS(=O)(=O)CCN2CCOCC2)C[C@@H]1c1nnc2cnc3[nH]ccc3n12 [D.1.61] | > 1000 |
| CC[C@@H]1C[C@H](NCCS(=O)(=O)N2CCC(F)(F)C2)C[C@@H]1c1nnc2cnc3[nH]ccc3n12 [D.1.62] | > 1000 |
| O=S(=O)(CCC(F)(F)F)N1CC2CC1CN2c1ncc2cnc3[nH]ccc3n12 (stereo not drawn) [D.1.63] | > 1000 |
| O=S(=O)(CCC(F)(F)F)N1CC2CN(c3ncc4cnc5[nH]ccc5n34)CC2C1 (stereo not drawn) [D.1.64] | > 1000 |
| O=S(=O)(CCC(F)(F)F)N1CCN(c2ncc3cnc4[nH]ccc4n23)CC(F)C1 (stereo not drawn) [D.1.65] | > 1000 |
| CC[C@@H]1C[C@H](NS(=O)(=O)C(C)(C)C)C[C@@H]1c1nnc2cnc3[nH]ccc3n12 [D.1.67] | 100 to 1000 |
| CC1CCN(S(=O)(=O)CCC(F)(F)F)CCN1c1ncc2cnc3[nH]ccc3n12 (stereo not drawn) [D.1.70] | 100 to 1000 |
| O=S(=O)(CCC(F)(F)F)NC1CCCN(c2ncc3cnc4[nH]ccc4n23)C1 (stereo not drawn) [D.1.72] | 100 to 1000 |
| O=S(=O)(CCC(F)(F)F)N1CCC2CC1CN2c1ncc2cnc3[nH]ccc3n12 (stereo not drawn) [D.1.73] | > 1000 |
| O=S(=O)(NC12CCC(c3ccc4cnc5[nH]ccc5n34)(CC1)CC2)C1CC1 [D.1.76] | 100 to 1000 |
| C[C@@H]1C[C@H](NS(=O)(=O)C2(C)CC2)C[C@@H]1c1ncc2cnc3[nH]ccc3n12 [D.1.77] | 100 to 1000 |
| C[C@@H]1C[C@H](NS(=O)(=O)N2CC(F)(F)C2)C[C@@H]1c1ncc2cnc3[nH]ccc3n12 [D.1.78] | < 100 |
| C[C@@H]1C[C@H](NS(=O)(=O)CCC(F)(F)F)C[C@@H]1c1ncc2cnc3[nH]ccc3n12 [D.1.79] | < 100 |
| C[C@@H]1C[C@H](NS(=O)(=O)N2CCC(F)(F)C2)C[C@@H]1c1ncc2cnc3[nH]ccc3n12 [D.1.80] | < 100 |
| CC[C@@H]1C[C@H](NS(=O)(=O)C2(CC)CC2)C[C@@H]1c1nnc2cnc3[nH]ccc3n12 [D.1.82] | 100 to 1000 |
| CCC1(S(=O)(=O)N[C@H]2C[C@@H](C)[C@@H](c3ncc4cnc5[nH]ccc5n34)C2)CC1 [D.1.83] | < 100 |
| CCCCC1(S(=O)(=O)N[C@H]2C[C@@H](CC)[C@@H](c3nnc4cnc5[nH]ccc5n34)C2)CC1 [D.1.84] | 100 to 1000 |
| CC[C@@H]1C[C@H](NS(=O)(=O)N2CC(C#N)C2)C[C@@H]1c1nnc2cnc3[nH]ccc3n12 [D.2.5] | 100 to 1000 |
| C[C@@H]1C[C@H](Nc2cccc(C#N)c2)C[C@@H]1c1nnc2cnc3[nH]ccc3n12 [D.2.6] | > 1000 |

The remaining lines, values ahead:

| IC50 [nM] | SMILES |
| --- | --- |
| 100 to 1000 | CC[C@@H]1C[C@H](Nc2cnc(C#N)cn2)C[C@@H]1c1nnc2cnc3[nH]ccc3n12 [D.2.11] |
| < 100 | CC[C@@H]1C[C@H](Nc2cnc(C#N)cn2)C[C@@H]1c1ncc2cnc3[nH]ccc3n12 [D.2.13] |
| 100 to 1000 | N#Cc1cnc(NC[C@H]2CC[C@@H](c3ncc4cnc5[nH]ccc5n34)C2)cn1 [D.2.15] |
| 100 to 1000 | CC[C@@H]1C[C@H](Nc2ccc(C#N)cn2)C[C@@H]1c1nnc2cnc3[nH]ccc3n12 [D.2.19] |
| 100 to 1000 | C[C@@H]1C[C@H](Nc2cnc(C#N)cn2)C[C@@H]1c1ncc2cnc3[nH]ccc3n12 [D.2.21] |
| > 1000 | N#Cc1ccnc(NC[C@H]2CC[C@@H](c3nnc4cnc5[nH]ccc5n34)C2)c1 [D.2.23] |
| < 100 | CC[C@@H]1C[C@@H](Oc2ccc(C#N)cc2)C[C@@H]1c1ncc2cnc3[nH]ccc3n12 [D.2.24] |
| < 100 | C[C@@H]1CCN(S(=O)(=O)N2CCCC2)C[C@@H]1c1ncc2cnc3[nH]ccc3n12 [DD.1.1] |
| < 100 | O=C(C1CC(F)(F)C1)N1CCC[C@@H](c2cnc3cnc4[nH]ccc4n23)C1 [Example #3, (R)-(3-(3H-imidazo[1,2-a]pyrrolo[2,3-e]pyrazin-8-yl)piperidin-1-yl)(3,3-difluorocyclobutyl)methanone] |
| < 100 | CC[C@@H]1C[C@@H](Oc2ccc(C#N)cc2)C[C@@H]1c1nnc2cnc3[nH]ccc3n12 [Example #4, 4-((1R,3R,4S)-3-ethyl-4-(6H-pyrrolo[2,3-e][1,2,4]triazolo[4,3-a]pyrazin-1-yl)cyclopentyloxy)benzonitrile] |
| 100 to 1000 | C[C@@H]1CCN(C(=NC#N)N2CCCC2)C[C@@H]1c1ncc2cnc3[nH]ccc3n12 [Example #5, N-(((3R,4R)-3-(6H-imidazo[1,5-a]pyrrolo[2,3-e]pyrazin-1-yl)-4-methylpiperidin-1-yl)(pyrrolidin-1-yl)methylene)cyanamide] |
| 100 to 1000 | O=C(N1CCC(F)(F)CC1)N1CCC[C@@H](c2ncc3cnc4[nH]ccc4n23)C1 [Example #6, (R)-(3-(6H-imidazo[1,5-a]pyrrolo[2,3-e]pyrazin-1-yl)piperidin-1-yl)(4,4-difluoropiperidin-1-yl)methanone] |
| 100 to 1000 | CC[C@@H]1C[C@H](Nc2ncc(C#N)s2)C[C@@H]1c1nnc2cnc3[nH]ccc3n12 [Example #8, 2-((1S,3R,4S)-3-ethyl-4-(6H-pyrrolo[2,3-e][1,2,4]triazolo[4,3-a]pyrazin-1-yl)cyclopentylamino)thiazole-5-carbonitrile] |
| 100 to 1000 | O=S(=O)(NC12CCC(c3nnc4cnc5[nH]ccc5n34)(CC1)CC2)N1CCCC1 [Example #9, N-(4-(6H-pyrrolo[2,3-e][1,2,4]triazolo[4,3-a]pyrazin-1-yl)bicyclo[2.2.2]octan-1-yl)pyrrolidine-1-sulfonamide] |
| < 100 | CC[C@@H]1C[C@H](NS(=O)(=O)C2CC2)C[C@@H]1c1nc(CCCO)c2cnc3[nH]ccc3n12 [Example #14, N-((1S,3R,4S)-3-ethyl-4-(3-(3-hydroxypropyl)-6H-imidazo[1,5-a]pyrrolo[2,3-e]pyrazin-1-yl)cyclopentyl)cyclopropanesulfonamide] |
| < 100 | CC[C@@H]1C[C@H](NS(=O)(=O)C2CC2)C[C@@H]1c1nc(CO)c2cnc3[nH]ccc3n12 [Example #17, N-((1S,3R,4S)-3-ethyl-4-(3-(hydroxymethyl)-6H-imidazo[1,5-a]pyrrolo[2,3-e]pyrazin-1-yl)cyclopentyl)cyclopropanesulfonamide] |
| 100 to 1000 | CC[C@@H]1C[C@H](NS(=O)(=O)C2CC2)C[C@@H]1c1nc(CCO)c2cnc3[nH]ccc3n12 [Example #18, N-((1S,3R,4S)-3-ethyl-4-(3-(2-hydroxyethyl)-6H-imidazo[1,5-a]pyrrolo[2,3-e]pyrazin-1-yl)cyclopentyl)cyclopropanesulfonamide] |

| IC50 [nM] | SMILES |
| --- | --- |
| 100 to 1000 | c1cc2c(ncc3ncn(C4CCCCC4)c32)[nH]1 [Example #21, 1-cyclohexyl-1,6-dihydroimidazo[4,5-d]pyrrolo[2,3-b]pyridine] |
| > 1000 | CC[C@@H]1C[C@H](OC2CCOCC2)C[C@@H]1c1nnc2cnc3[nH]ccc3n12 [Example #22, 1-((1S,2R,4S)-2-ethyl-4-(tetrahydro-2H-pyran-4-yloxy)cyclopentyl)-6H-pyrrolo[2,3-e][1,2,4]triazolo[4,3-a]pyrazine] |
| 100 to 1000 | CC[C@@H]1C[C@H](Nc2cnc(C#N)cn2)CN1c1ncc2cnc3[nH]ccc3n12 [Example #26, 5-((3S,5R)-5-ethyl-1-(6H-imidazo[1,5-a]pyrrolo[2,3-e]pyrazin-1-yl)pyrrolidin-3-ylamino)pyrazine-2-carbonitrile oxalate] |
| > 1000 | CC[C@@H]1C[C@H](NS(=O)(=O)CCC(F)(F)F)CN1c1ncc2cnc3[nH]ccc3n12 [Example #27, N-((3S,5R)-5-ethyl-1-(6H-imidazo[1,5-a]pyrrolo[2,3-e]pyrazin-1-yl)pyrrolidin-3-yl)-3,3,3-trifluoropropane-1-sulfonamide] |
| > 1000 | c1cc2c3c(cnc2[nH]1)CCCN3C1CCCCC1 [Example #28, 1-cyclohexyl-2,3,4,7-tetrahydro-1H-pyrrolo[2,3-h][1,6]naphthyridine] |
| < 100 | O=S(=O)(NC12CCC(c3n[nH]c4cnc5[nH]ccc5c34)(CC1)CC2)C1CC1 [Example #29, N-(4-(3,6-dihydropyrazolo[4,3-d]pyrrolo[2,3-b]pyridin-1-yl)bicyclo[2.2.2]octan-1-yl)cyclopropanesulfonamide] |
| 100 to 1000 | CC[C@@H]1C[C@H](N(C#N)S(=O)(=O)C2CC2)C[C@@H]1c1nnc2cnc3[nH]ccc3n12 [Example #32, N-cyano-N-((1S,3R,4S)-3-ethyl-4-(6H-pyrrolo[2,3-e][1,2,4]triazolo[4,3-a]pyrazin-1-yl)cyclopentyl)cyclopropanesulfonamide] |
| < 100 | C[C@@H]1CCN(C(=O)C2CCC(F)(F)CC2)C[C@@H]1c1ncc2cnc3[nH]ccc3n12 [H.1.1] |
| < 100 | C[C@@H]1CCN(C(=O)CC(F)(F)F)C[C@@H]1c1ncc2cnc3[nH]ccc3n12 [H.1.2] |
| < 100 | C#CCCC(=O)N1CC[C@@H](C)[C@@H](c2ncc3cnc4[nH]ccc4n23)C1 [H.1.6] |
| < 100 | C[C@@H]1CCN(C(=O)CCc2cc(Cl)no2)C[C@@H]1c1ncc2cnc3[nH]ccc3n12 [H.1.10] |
| < 100 | C[C@@H]1CCN(C(=O)C2CC(F)(F)C2)C[C@@H]1c1ncc2cnc3[nH]ccc3n12 [H.1.21] |
| < 100 | C[C@@H]1CCN(C(=O)CCC#N)C[C@@H]1c1ncc2cnc3[nH]ccc3n12 [H.1.25] |
| 100 to 1000 | O=C(C1CC(F)(F)C1)N1CCC[C@@H](c2ncc3cnc4[nH]ccc4n23)C1 [H.4.1] |
| < 100 | C[C@@H]1CCN(C(=O)N2CCCCC2)C[C@@H]1c1ncc2cnc3[nH]ccc3n12 [I.1.1, ((3R,4R)-3-(6H-imidazo[1,5-a]pyrrolo[2,3-e]pyrazin-1-yl)-4-methylpiperidin-1-yl)(piperidin-1-yl)methanone] |
| < 100 | C[C@@H]1CCN(C(=O)N2CCOCC2)C[C@@H]1c1ncc2cnc3[nH]ccc3n12 [I.1.2] |
